33 molecules from patent US8895733B2 (Novartis AG, priority 2010, dated 2014) can be followed below.

For the first assay, the target named is T1, Nav 1.7 (Homo sapiens, UniProt Q15858).
T1 construct: expressed in transfected cells
T1 sequence (Q15858 whole entry): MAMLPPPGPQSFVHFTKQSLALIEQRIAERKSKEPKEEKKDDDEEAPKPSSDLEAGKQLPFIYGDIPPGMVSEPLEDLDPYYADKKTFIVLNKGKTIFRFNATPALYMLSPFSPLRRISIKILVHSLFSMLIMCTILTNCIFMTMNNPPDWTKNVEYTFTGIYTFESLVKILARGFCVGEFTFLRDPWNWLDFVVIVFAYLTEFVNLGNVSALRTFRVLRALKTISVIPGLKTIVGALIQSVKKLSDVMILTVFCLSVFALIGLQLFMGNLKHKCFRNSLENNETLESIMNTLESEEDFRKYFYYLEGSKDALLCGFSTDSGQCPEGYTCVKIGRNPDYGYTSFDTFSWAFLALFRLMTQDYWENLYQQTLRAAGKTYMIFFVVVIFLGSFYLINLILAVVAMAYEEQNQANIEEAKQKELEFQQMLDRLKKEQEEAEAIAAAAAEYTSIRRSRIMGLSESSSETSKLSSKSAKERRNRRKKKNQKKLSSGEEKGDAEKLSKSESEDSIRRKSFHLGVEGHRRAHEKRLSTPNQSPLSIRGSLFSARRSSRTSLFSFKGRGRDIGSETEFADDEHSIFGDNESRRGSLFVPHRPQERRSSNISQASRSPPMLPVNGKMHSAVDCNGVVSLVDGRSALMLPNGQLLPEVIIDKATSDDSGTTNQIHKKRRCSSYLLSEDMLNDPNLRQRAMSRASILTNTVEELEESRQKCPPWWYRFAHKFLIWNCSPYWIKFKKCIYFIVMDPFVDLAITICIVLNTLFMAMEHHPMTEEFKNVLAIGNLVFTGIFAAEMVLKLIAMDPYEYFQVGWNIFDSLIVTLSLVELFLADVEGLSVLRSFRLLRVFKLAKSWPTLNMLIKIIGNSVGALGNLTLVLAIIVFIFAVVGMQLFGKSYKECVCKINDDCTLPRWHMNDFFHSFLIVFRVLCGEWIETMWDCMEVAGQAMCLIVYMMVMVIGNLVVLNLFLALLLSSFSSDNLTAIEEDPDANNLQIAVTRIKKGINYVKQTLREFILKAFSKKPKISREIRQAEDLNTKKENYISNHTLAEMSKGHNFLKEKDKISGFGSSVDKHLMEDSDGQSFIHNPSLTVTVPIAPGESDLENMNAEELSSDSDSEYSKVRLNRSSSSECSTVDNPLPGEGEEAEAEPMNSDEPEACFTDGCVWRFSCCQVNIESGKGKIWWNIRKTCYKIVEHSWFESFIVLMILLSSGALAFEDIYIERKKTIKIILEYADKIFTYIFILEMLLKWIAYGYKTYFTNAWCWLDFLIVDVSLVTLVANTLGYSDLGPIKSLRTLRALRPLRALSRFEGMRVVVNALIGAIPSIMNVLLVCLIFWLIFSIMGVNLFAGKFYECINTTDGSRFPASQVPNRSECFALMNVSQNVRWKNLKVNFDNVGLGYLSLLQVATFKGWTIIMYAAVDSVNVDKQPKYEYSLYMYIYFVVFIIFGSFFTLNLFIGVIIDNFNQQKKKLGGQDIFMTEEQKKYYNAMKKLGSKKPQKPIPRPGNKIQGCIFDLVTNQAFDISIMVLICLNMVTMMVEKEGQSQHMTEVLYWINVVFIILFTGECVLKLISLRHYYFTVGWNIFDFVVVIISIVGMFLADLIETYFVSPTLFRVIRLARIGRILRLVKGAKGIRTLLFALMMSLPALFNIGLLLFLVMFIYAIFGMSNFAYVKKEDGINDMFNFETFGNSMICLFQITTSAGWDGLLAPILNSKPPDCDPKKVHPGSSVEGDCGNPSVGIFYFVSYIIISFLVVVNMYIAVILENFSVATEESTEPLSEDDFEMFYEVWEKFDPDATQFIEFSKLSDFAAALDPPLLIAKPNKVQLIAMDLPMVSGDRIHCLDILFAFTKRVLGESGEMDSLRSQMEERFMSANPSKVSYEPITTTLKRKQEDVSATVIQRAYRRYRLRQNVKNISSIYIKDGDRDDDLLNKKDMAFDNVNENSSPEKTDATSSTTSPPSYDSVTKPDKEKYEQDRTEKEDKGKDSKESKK
Nature of the assay: Whole-cell voltage clamp electrophysiology, automated patch clamp (marker c in Table of Examples). It counts as cell-based. Particulars: marker c = Automated patch clamp data; read-out: Nav 1.7 activity. Put shortly:
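A voltage protocol weighted toward inactivated-state block was used to test compounds on stably expressing cells, with pulses from −65 mV holding to −10 mV test and −100 mV. Currents came from whole-cell automated patch-clamp recordings, either IonWorks Quattro or other automated instruments, usually in perforated-patch mode.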
As to `CC1CCN(c2nc(-c3nc(N)nc(Nc4cccc(F)c4)n3)no2)CC1` [Example 245, 2-N-(3-fluorophenyl)-6-[5-(4-methylpiperidin-1-yl)-1,2,4-oxadiazol-3-yl]-1,3,5-triazine-2,4-diamine], the IC50 was 3.09 µM. The same measure, in the same setting: the result for `CN(c1ccccc1)c1nc(N)nc(-c2noc(-c3ccc(C(=O)NCC(F)(F)F)nc3)n2)n1` [Example 280, 5-(3-{4-Amino-6-[methyl(phenyl)amino]-1,3,5-triazin-2-yl}-1,2,4-oxadiazol-5-yl)-N-(2,2,2-trifluoroethyl)pyridine-2-carboxamide] reads 0.513 µM. Take `CCS(=O)(=O)N1CC(c2nc(-c3nc(N)nc(N(C)c4ccccc4)n3)no2)C1` [Example 309, 6-{5-[1-(ethanesulfonyl)azetidin-3-yl]-1,2,4-oxadiazol-3-yl}-2-N-methyl-2-N-phenyl-1,3,5-triazine-2,4-diamine]: the IC50 was determined as 1.73 µM. On the same count and under the same terms, then `CN(c1ccccc1)c1nc(N)nc(-c2noc(C3CCN(S(=O)(=O)c4ccccc4)C3)n2)n1` (stereo not drawn) [Example 203, 6-{5-[1-(benzenesulfonyl)pyrrolidin-3-yl]-1,2,4-oxadiazol-3-yl}-2-N-methyl-2-N-phenyl-1,3,5-triazine-2,4-diamine], with 4.56 µM; and `CN(c1ccccc1)c1nc(N)nc(-c2noc(-c3ccc(S(=O)(=O)CCC(F)(F)F)nc3)n2)n1` [Example 454, 2-N-methyl-2-N-phenyl-6-(5-{6-[(3,3,3-trifluoropropane)sulfonyl]pyridin-3-yl}-1,2,4-oxadiazol-3-yl)-1,3,5-triazine-2,4-diamine], with 0.29 µM; and `CN(c1ccccc1)c1nc(N)nc(-c2noc(-c3ccc(NCC4CC4)nc3)n2)n1` [Example 333, 6-(5-{6-[(cyclopropylmethyl)amino]pyridin-3-yl}-1,2,4-oxadiazol-3-yl)-2-N-methyl-2-N-phenyl-1,3,5-triazine-2,4-diamine], with 0.126 µM.

Consider `CN(c1ccccc1)c1nc(N)nc(-c2noc(N[C@H]3CC[C@H](OCC(F)(F)F)CC3)n2)n1` [Example 337], for which the IC50 was 7.8 µM. With `CCCS(=O)(=O)N1CC(c2nc(-c3nc(N)nc(N(C)c4ccccc4)n3)no2)C1` [Example 307, 2-N-methyl-2-N-phenyl-6-{5-[1-(propane-1-sulfonyl)azetidin-3-yl]-1,2,4-oxadiazol-3-yl}-1,3,5-triazine-2,4-diamine], the IC50 is 8.05 µM.

In the case of `CN(c1ccccc1)c1nc(N)nc(-c2noc(-c3ccnn3C)n2)n1` [Example 253, 2-N-methyl-6-[5-(1-methyl-1H-pyrazol-5-yl)-1,2,4-oxadiazol-3-yl]-2-N-phenyl-1,3,5-triazine-2,4-diamine], the IC50 stood at 4.56 µM.

Consider `COc1cc(-c2nc(-c3nc(N)nc(Nc4ccccc4)n3)no2)ccn1` [Example 239, 6-[5-(2-methoxypyridin-4-yl)-1,2,4-oxadiazol-3-yl]-2-N-phenyl-1,3,5-triazine-2,4-diamine], for which the IC50 was 5.87 µM. Take `CN(c1ccc(F)cc1)c1nc(N)nc(-c2noc(-c3ccc(OCC(F)(F)F)nc3)n2)n1` [Example 410, 2-N-(4-fluorophenyl)-2-N-methyl-6-{5-[6-(2,2,2-trifluoroethoxy)pyridin-3-yl]-1,2,4-oxadiazol-3-yl}-1,3,5-triazine-2,4-diamine]: the IC50 was 1.15 µM.

Regarding `CN(c1ccccc1)c1nc(N)nc(-c2noc(N3CC[C@H](Oc4ccccc4)C3)n2)n1` [Example 433, 2-N-methyl-6-{5-[(3S)-3-phenoxypyrrolidin-1-yl]-1,2,4-oxadiazol-3-yl}-2-N-phenyl-1,3,5-triazine-2,4-diamine], the IC50 is 0.161 µM. Regarding `CN(c1ccccc1)c1nc(N)nc(-c2noc(-c3ccc(COCC4CC4)nc3)n2)n1` [Example 208, 6-(5-{6-[(cyclopropylmethoxy)methyl]pyridin-3-yl}-1,2,4-oxadiazol-3-yl)-2-N-methyl-2-N-phenyl-1,3,5-triazine-2,4-diamine], the IC50 turned out to be 0.113 µM. Take `Nc1nc(Nc2cccc(Cl)c2)nc(-c2noc(-c3ccccn3)n2)n1` [Example 265, 2-N-(3-chlorophenyl)-6-[5-(pyridin-2-yl)-1,2,4-oxadiazol-3-yl]-1,3,5-triazine-2,4-diamine]: the IC50 turned out to be 0.386 µM. With `CN(c1ccccc1)c1nc(N)nc(-c2noc(-c3ccc(N4CCCCC4)nc3)n2)n1` [Example 473, 2-N-methyl-2-N-phenyl-6-{5-[6-(piperidin-1-yl)pyridin-3-yl]-1,2,4-oxadiazol-3-yl}-1,3,5-triazine-2,4-diamine], the IC50 was found to be 0.31 µM. For the molecule `CN(c1ccccc1)c1nc(N)nc(-c2noc(-c3ccc([S+]([O-])CCC(F)(F)F)nc3)n2)n1` (stereo not drawn) [Example 455, 2-N-methyl-2-N-phenyl-6-(5-{6-[(3,3,3-trifluoropropane)sulfinyl]pyridin-3-yl}-1,2,4-oxadiazol-3-yl)-1,3,5-triazine-2,4-diamine], the IC50 is 0.057 µM. Regarding `CN(c1ccccc1)c1nc(N)nc(-c2noc(-c3ccc(C(=O)NC4CC4)nc3)n2)n1` [Example 287, 5-(3-{4-amino-6-[methyl(phenyl)amino]-1,3,5-triazin-2-yl}-1,2,4-oxadiazol-5-yl)-N-cyclopropylpyridine-2-carboxamide], the IC50 was 1.89 µM. As to `CN(c1ccccc1)c1nc(N)nc(-c2noc(C(=O)N3C[C@@H]4[C@@H](COCC(F)(F)F)[C@@H]4C3)n2)n1` [Example 402, 2-N-methyl-2-N-phenyl-6-(5-{[-6-[(2,2,2-trifluoroethoxy)methyl]-3-azabicyclo[3.1.0]hexan-3-yl]carbonyl}-1,2,4-oxadiazol-3-yl)-1,3,5-triazine-2,4-diamine], the IC50 amounted to 3.97 µM.

The assay is the same for the next values; noted with them: marker c: Automated patch clamp data; read-out: Nav 1.7 activity.
Turning to `Cc1cc(C)c(-c2nc(-c3nc(N)nc(N(C)c4ccccc4)n3)no2)cn1` [Example 154, 6-[5-(4,6-dimethylpyridin-3-yl)-1,2,4-oxadiazol-3-yl]-2-N-methyl-2-N-phenyl-1,3,5-triazine-2,4-diamine], the IC50 was 5.06 µM.

As for `CCN(c1ccccc1)c1nc(N)nc(-c2noc(-c3ccccc3Cl)n2)n1` [Example 192, 6-[5-(2-chlorophenyl)-1,2,4-oxadiazol-3-yl]-2-N-ethyl-2-N-phenyl-1,3,5-triazine-2,4-diamine], the IC50 worked out at 0.123 µM. Turning to `CN(c1ccccc1)c1nc(N)nc(-c2noc(-c3ccc(F)cc3)n2)n1` [Example 122, 6-[5-(4-Fluoro-phenyl)-[1,2,4]oxadiazol-3-yl]-N-methyl-N-phenyl-[1,3,5]triazine-2,4-diamine], the IC50 came out at 0.644 µM. In the case of `CN(c1ccccc1)c1nc(N)nc(-c2noc(C3CCN(CCC(F)(F)F)CC3)n2)n1` [Example 163, 2-N-methyl-2-N-phenyl-6-{5-[1-(3,3,3-trifluoropropyl)piperidin-4-yl]-1,2,4-oxadiazol-3-yl}-1,3,5-triazine-2,4-diamine], the IC50 was 0.559 µM. Regarding `CC(C)C(=O)N1CCC(c2nc(-c3nc(N)nc(N(C)c4ccccc4)n3)no2)CC1` [Example 161, 1-[4-(3-{4-Amino-6-[methyl(phenyl)amino]-1,3,5-triazin-2-yl}-1,2,4-oxadiazol-5-yl)piperidin-1-yl]-2-methylpropan-1-one], the IC50 came out at 8.5 µM. The same measure, in the same setting: then `CN(c1ccccc1)c1nc(N)nc(-c2noc(C3CCN(S(C)(=O)=O)CC3)n2)n1` [Example 160, 6-[5-(1-methanesulfonylpiperidin-4-yl)-1,2,4-oxadiazol-3-yl]-2-N-methyl-2-N-phenyl-1,3,5-triazine-2,4-diamine], with 2.73 µM; and `CCS(=O)(=O)N1CCC(c2nc(-c3nc(N)nc(N(C)c4ccccc4)n3)no2)CC1` [Example 170, 6-{5-[1-(ethanesulfonyl)piperidin-4-yl]-1,2,4-oxadiazol-3-yl}-2-N-methyl-2-N-phenyl-1,3,5-triazine-2,4-diamine], with 1.88 µM. On the same count and under the same terms, the result for `CCN(c1ccccc1)c1nc(N)nc(-c2noc(-c3ccccc3OC(F)(F)F)n2)n1` [Example 198, 2-N-ethyl-2-N-phenyl-6-{5-[2-(trifluoromethoxy)phenyl]-1,2,4-oxadiazol-3-yl}-1,3,5-triazine-2,4-diamine] reads 0.777 µM.

Take `COc1ccc(-c2nc(-c3nc(N)nc(N(C)c4cccc(C)c4)n3)no2)c(OC)c1` [Example 188, 6-[5-(2,4-dimethoxyphenyl)-1,2,4-oxadiazol-3-yl]-2-N-methyl-2-N-(3-methylphenyl)-1,3,5-triazine-2,4-diamine]: the IC50 was 7.63 µM.

`COc1cc(F)ccc1-c1nc(-c2nc(N)nc(N(C)c3cccc(C)c3)n2)no1` [Example 187, 6-[5-(4-fluoro-2-methoxyphenyl)-1,2,4-oxadiazol-3-yl]-2-N-methyl-2-N-(3-methylphenyl)-1,3,5-triazine-2,4-diamine]: the IC50 was 0.458 µM. Turning to `Cc1ccccc1-c1nc(-c2nc(N)nc(N(C)c3ccccc3)n2)no1` [Example 27, N-Methyl-N-phenyl-6-(5-o-tolyl-[1,2,4]oxadiazol-3-yl)-[1,3,5]triazine-2,4-diamine], the IC50 was determined as 0.923 µM.

Regarding `CN(c1ccccc1)c1nc(N)nc(-c2noc(C3CCN(C(=O)CC(F)(F)F)CC3)n2)n1` [Example 164, 1-[4-(3-{4-amino-6-[methyl(phenyl)amino]-1,3,5-triazin-2-yl}-1,2,4-oxadiazol-5-yl)piperidin-1-yl]-3,3,3-trifluoropropan-1-one], the IC50 was found to be 9.04 µM. As for `Nc1nc(-c2noc(-c3ccco3)n2)nc(N(CC2CC2)c2ccccc2)n1` [Example 121, N-Cyclopropylmethyl-6-(5-furan-2-yl-[1,2,4]oxadiazol-3-yl)-N-phenyl-[1,3,5]triazine-2,4-diamine], the IC50 was determined as 0.395 µM. As for `CN(c1ccccc1)c1nc(N)nc(-c2noc(-c3ccc(C#N)nc3)n2)n1` [Example 78, 5-{3-[4-Amino-6-(methyl-phenyl-amino)-[1,3,5]triazin-2-yl]-[1,2,4]oxadiazol-5-yl}-pyridine-2-carbonitrile], the IC50 was 1.66 µM.

With `CN(c1ccccc1)c1nc(N)nc(-c2noc(-c3ccncn3)n2)n1` [Example 120, N-Methyl-N-phenyl-6-(5-pyrimidin-4-yl-[1,2,4]oxadiazol-3-yl)-[1,3,5]triazine-2,4-diamine], the IC50 is 2.24 µM.
